From BindingDB's records for PubMed 36966976 (Csir-Indian Institute of Chemical Technology (CSIR-IICT), 2023)

Target: Alpha-synuclein (Homo sapiens, UniProt P37840)

Kd: 3.8 nM
Structure (SMILES): OCCOC(=C\C=C1N(c2ccccc2)c2cc3ccccc3cc2N1c1ccccc1)/C=C/c1n(-c2ccccc2)c2cc3ccccc3cc2[n+]1-c1ccccc1
